According to article PMC4363291 (The Journal of investigative dermatology, 2014):
Structures can show the parent of a compound that is named as a salt.

Columns and labels:
Assay in all cases: voltage-clamp of hemichannel currents in Xenopus oocytes
Assay type in all cases: cell-based
[1] = target: connexin26 (Cx26) hemichannel (Homo sapiens, UniProt P29033, A40V)
[2] = target: connexin26 (Cx26) hemichannel (Homo sapiens, UniProt P29033, D50N)
[3] = target: T1, connexin26 (Cx26) hemichannel (Homo sapiens, UniProt P29033, G45E)
[4] = target: connexin26 (Cx26) hemichannel (Homo sapiens, UniProt P29033, D50A)
[5] = target: T1, connexin26 (Cx26) hemichannel; remark: listed apart in the source

SMILES | % [1] | % [2] [% reduction at 30µM] | IC50 [3] [µM] | % [4] | % [5] [% reduction at 30µM]
O[C@@H](c1cc(C(F)(F)F)nc2c(C(F)(F)F)cccc12)[C@H]1CCCCN1 (relative stereo) [MFQ, [R*,S*]-[2,8-Bis-trifluoromethyl-quinolin-4-yl]-piperidin-2-yl-methanolhydrochloride] | 50% or better suppression at 30µM | 69±15 | ~16 | 50% or better suppression at 30µM | 
OC(c1ccccn1)c1cc(C(F)(F)F)nc2c(C(F)(F)F)cccc12 (stereo not drawn) [QU026, [2,8-Bis-trifluoromethyl-quinolin-4-yl]-pyridin-2-yl-methanol] |  | 73±11 |  |  | 59±13
